Measurements as given in ChEMBL document CHEMBL1151084, “Synthesis and biological properties of quaternized N-methylation analogs of D-Arg-2-dermorphin tetrapeptide” (Bioorg Med Chem Lett, 1994).
Where a SMILES comes first, the peptide text is derived from it.

Legend:
[1] = target: Mu-type opioid receptor (Rattus norvegicus, UniProt P33535); assay: Binding affinity against mu-opioid receptor by using [3H]DAGO as radioligand in rat brain; type: tissue-based
[2] = target: Delta-type opioid receptor (Rattus norvegicus, UniProt P33533); assay: Binding affinity against delta-opioid receptor by using [3H]DADLE as radioligand in rat brain; type: tissue-based
[3] = organism: Cavia porcellus; assay: In vitro bioactivity on electrically induced smooth muscle contraction of guinea pig ileum by GPI assay; type: functional
[4] = test system: Mus musculus; assay: In vivo antinociceptive effect in mice by PBQ writhing test upon subcutaneous administration; Range is (0.88-1.56); type: functional; conditions: sc
[5] = test system: Mus musculus; assay: In vivo antinociceptive effect in mice by PBQ writhing test upon subcutaneous administration: Range is (0.39-0.59); type: functional; conditions: sc
[6] = test system: Mus musculus; assay: In vivo antinociceptive effect in mice by PBQ writhing test upon subcutaneous administration; Range is (1.64-3.24); type: functional; conditions: sc
[7] = test system: Mus musculus; assay: In vivo antinociceptive effect in mice by PBQ writhing test upon subcutaneous administration; Range is (0.52-0.741); type: functional; conditions: sc

Chain of Mu-type opioid receptor (P33535 whole entry): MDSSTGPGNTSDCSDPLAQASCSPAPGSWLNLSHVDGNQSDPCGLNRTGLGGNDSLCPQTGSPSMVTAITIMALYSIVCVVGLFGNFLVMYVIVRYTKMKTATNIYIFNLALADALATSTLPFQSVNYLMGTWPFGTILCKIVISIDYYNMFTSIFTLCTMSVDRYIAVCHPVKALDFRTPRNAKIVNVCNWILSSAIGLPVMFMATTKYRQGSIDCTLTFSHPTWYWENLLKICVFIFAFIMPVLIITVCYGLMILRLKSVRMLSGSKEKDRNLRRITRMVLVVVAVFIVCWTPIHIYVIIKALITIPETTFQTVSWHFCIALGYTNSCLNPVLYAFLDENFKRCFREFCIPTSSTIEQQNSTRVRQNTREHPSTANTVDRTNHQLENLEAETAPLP
Chain of Delta-type opioid receptor (P33533 whole entry): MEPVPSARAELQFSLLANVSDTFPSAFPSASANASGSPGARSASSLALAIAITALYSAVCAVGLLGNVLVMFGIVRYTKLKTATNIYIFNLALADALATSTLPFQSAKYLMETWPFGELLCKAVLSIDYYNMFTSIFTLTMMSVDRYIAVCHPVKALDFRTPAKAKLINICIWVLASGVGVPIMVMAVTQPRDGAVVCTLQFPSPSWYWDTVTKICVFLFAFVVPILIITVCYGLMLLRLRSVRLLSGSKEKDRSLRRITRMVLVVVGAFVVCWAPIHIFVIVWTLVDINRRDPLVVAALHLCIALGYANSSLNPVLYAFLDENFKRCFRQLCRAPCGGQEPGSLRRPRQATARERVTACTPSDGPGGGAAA

SMILES	Ki [1]	Ki [2]	IC50 [3]	ED50 [4]	ED50 [5]	ED50 [6]	ED50 [7]
C[N+](C)(C)CC[C@H](NC(=O)[C@H](Cc1ccccc1)NC(=O)[C@H](CCCNC(=N)N)NC(=O)[C@H](Cc1ccc(O)cc1)[N+](C)(C)C)C(N)=O	1300 nM	> 100000 nM	3120 nM				
C[N+](C)(C)[C@@H](Cc1ccc(O)cc1)C(=O)N[C@H](CCCN=C(N)N)C(=O)N[C@@H](Cc1ccccc1)C(=O)N[C@@H](CCCN)C(N)=O	1920 nM	> 100000 nM	> 100000 nM				
C[N+](C)(C)CCCC[C@H](NC(=O)[C@H](Cc1ccccc1)NC(=O)[C@@H](CCCNC(=N)N)NC(=O)[C@@H](N)Cc1ccc(O)cc1)C(N)=O	1.12 nM	3550 nM	91.9 nM	1.18 mg/kg			
NCCCC[C@H](NC(=O)[C@H](Cc1ccccc1)NC(=O)[C@@H](CCCN=C(N)N)NC(=O)[C@@H](N)Cc1ccc(O)cc1)C(N)=O	0.38 nM	2360 nM	50.6 nM		0.47 mg/kg		
C[N+](C)(C)[C@@H](Cc1ccc(O)cc1)C(=O)N[C@H](CCCN=C(N)N)C(=O)N[C@@H](Cc1ccccc1)C(=O)N[C@@H](CCCCN)C(N)=O	207 nM	> 100000 nM	2470 nM				
C[N+](C)(C)CCC[C@H](NC(=O)[C@H](Cc1ccccc1)NC(=O)[C@@H](CCCN=C(N)N)NC(=O)[C@@H](N)Cc1ccc(O)cc1)C(N)=O	2.35 nM	450 nM	130 nM			2.3 mg/kg	
NC(=O)[C@H](CCNC(=O)[C@H](Cc1ccccc1)NC(=O)[C@H](CCCN=C(N)N)NC(=O)[C@@H](N)Cc1ccc(O)cc1)NC(=O)[C@H](Cc1ccccc1)NC(=O)[C@H](CCCN=C(N)N)NC(=O)[C@@H](N)Cc1ccc(O)cc1 (HELM PEPTIDE1{Y.R.F.[Dab].[am]}|PEPTIDE2{Y.R.F}$PEPTIDE1,PEPTIDE2,4:R3-3:R2$$$V2.0)	0.51 nM	497 nM	14.2 nM				0.61 mg/kg
C[N+](C)(C)CC[C@H](NC(=O)[C@H](Cc1ccccc1)NC(=O)[C@H](CCCN=C(N)N)NC(=O)[C@@H](N)Cc1ccc(O)cc1)C(N)=O	7.52 nM	5860 nM	125 nM				
